# Assay results reported in Sander's compilation of Henry's law constants (doi:10.1063/1.555654).
# Test: Henry solubility constant Hcp at 298.15 K (mol/(m3 Pa))
# Conditions: reference: Mackay and Shiu (1981)
row,Compound,Henry solubility constant Hcp
1,"Clc1ccc(Cl)cc1 [1,4-dichlorobenzene]",0.0042
2,"Clc1cccc(Cl)c1Cl [1,2,3-trichlorobenzene]",0.0079
3,Brc1ccccc1 [bromobenzene],0.004
4,Clc1cccc2ccccc12 [1-chloronaphthalene],0.0028
5,Clc1ccc2ccccc2c1 [2-chloronaphthalene],0.031
6,Clc1ccccc1 [chlorobenzene],0.0032
7,c1cc2c3c(cccc3c1)CC2 [acenaphthene],0.0064
8,c1ccc2cc3ccccc3cc2c1 [anthracene],0.014
9,c1ccc(-c2ccccc2)cc1 [biphenyl],0.033
10,"c1ccc2c(c1)Cc1ccccc1-2 [2,3-benzindene]",0.099
11,c1ccc2c(c1)ccc1ccccc12 [phenanthrene],0.27
12,Cc1cccc2ccccc12 [1-methylnaphthalene],0.038
13,"Clc1cc(Cl)c(Cl)c(Cl)c1 [1,2,3,5-tetrachlorobenzene]",0.0063
